Measurements reported in US5008246A, “Novel peptides suppressing the function of the immune system, pharmaceutical compositions containing them and process for preparing same” (Richter Gedeon Vegyeszeti Gyar R. T., priority 1988, dated 1991).
Where a SMILES comes first, the peptide text is derived from it. [ ]: non-standard residue; d: D form.

Columns and labels:
contact dermatitis = test: Inhibition of the contact dermatitis (oxazolone, method of Evans et al.); format: in vivo, male BALB/c (LATI) mice; details: oxazolone-sensitized mice, 1.0 mg/kg i.p.; ear weight difference after 24 hours vs physiological saline control
Procedure: These investigations were carried out on male BALB/c (LATI) mice with 20 to 22 g body-weight by using the method of Evans et al. [Br. J. Pharmacol. 43, 403 (1971)]. The abdominal side of the animals were depilated, then the naked abdominal skin of each animal was sensitized by 0.1 ml of the oxazolone solution of 2% in sunflower oil. After 1 week, the mice were i.p. treated with an 1.0 mg/kg dose of the test substance (dissolved in physiological saline solution), then the right ear of the animals was directly treated with 10 μl of an acetone solution containing 2% oxazolone while their left ear was treated with 10 μl of acetone. After 24 hours, their ears were cut off and weighed. The difference between the weight of treated and untreated ears of the animals was compared with the difference observed at the animals treated with the test substance and treated only with physiological saline solution, respectively. The difference in the ear weight was considered to be proportional to the extent of the contact dermatitis, while the value measured at the animals not treated with the test substance was taken as control, the dermatitis-diminishing effect of the test substances was obtained as expressed in percentage shown in Table 4.

resting macrophages = test: Effect on the phagocytating capacity of resting macrophages; format: in vivo, male NZB (OLAC-SzKB) mice; details: 1 mg/kg s.c. daily for 4 days; count of phagocytated opsonized yeast cells by peritoneal macrophages vs untreated animals
Procedure: These examinations were carried out on 6 months old male NZB (OLAC-SzKB) mice according to the method described in J. Immunopharmnacol. 4, 265 (1982-1983). The animals were treated daily with a 1 mg/kg subcutaneous (s.c.) dose of the test substances for 4 days. After bleeding the animals, their peritonea were washed with 8 ml of PBS buffer solution (pH 7.2) each containing 10 IU of heparin. The cell suspension washed out from the peritoneum was made free of the erythrocytes by shocking with distilled water, then washed 3 times with PBS buffer solution. The sedimentation between two washings was achieved by centrifuging at 1000 rpm for 5 minutes. Then, the concentration of each cell suspension was adjusted to 10^6 cell/ml and the suspension was settled for 30 minutes in a Boyden-chamber at 37° C. in an atmosphere containing 5% of carbon dioxide. Over the macrophages adhered to the glass wall, opsonized yeast was layered. After removing the non-phagocytated particles, those incorporated by the macrophages were counted in each cell. In Table 3, the percentage of decrease in the count of the phagocytated yeast cells is given in relation to the macrophages isolated from the untreated animals as control.

Compound | Inhibition of the contact dermatitis % (contact dermatitis) | Effect on the phagocytating capacity of resting macrophages % (resting macrophages)
N=C(N)NCCC[C@H](N)C(=O)NCCCC[C@H](N)C(=O)N[C@@H](CC(=O)O)C(=O)O [Compound 12, Lys(Arg)--Asp] (H-Lys(Arg)-Asp-OH) | -16% | -42%
N=C(N)NCCC[C@H](N)C(=O)NCCCC[C@H](N)C(=O)N[C@H](CC(=O)O)C(=O)O [Compound 13, Lys(Arg)--D--Asp] (H-Lys(Arg)-[dD]-OH) |  | -50%
